Results on 48 compounds are retold here after patent US8288371B2, “Ortho pyrrolidine, benzyl-substituted heterocycle CCR1 antagonists for autoimmune diseases and inflammation” (Pharmacopeia, LLC, priority 2007, dated 2012).

For this experiment, the target named is T1, human CCR1 (Homo sapiens, UniProt P32246).
T1 sequence (P32246 1-355): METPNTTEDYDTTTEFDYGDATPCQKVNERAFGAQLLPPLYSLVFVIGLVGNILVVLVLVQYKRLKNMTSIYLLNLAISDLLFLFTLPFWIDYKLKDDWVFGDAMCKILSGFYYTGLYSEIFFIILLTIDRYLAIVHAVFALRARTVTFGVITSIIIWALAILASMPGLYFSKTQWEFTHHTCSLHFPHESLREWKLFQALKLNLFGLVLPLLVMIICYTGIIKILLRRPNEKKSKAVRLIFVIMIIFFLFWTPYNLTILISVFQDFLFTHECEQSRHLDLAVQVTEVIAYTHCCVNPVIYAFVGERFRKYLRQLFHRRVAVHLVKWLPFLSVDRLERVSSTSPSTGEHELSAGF
Description: CCR1 binding protocol (SPA, [125I]-MIP-1α displacement). The following applies: cell membrane expressing human CCR1, 0.1 nM [125I]-MIP-1α, 4 hours at ambient temperature; read-out: Relative potency (IC50). The procedure:
The following protocol was used to test compounds for CCR1 binding. A mixture, including scintillation proximity assay (SPA) beads and cell membrane expressing human CCR1, was prepared in assay buffer (130 mM NaCl+5 mM KCl+1 mM MnCl+50 mM Tris HCl at pH 7.4+0.1% bovine serum albumin (BSA)) at the ratio of 50 μg/ml membrane to 10 mg/ml SPA beads. 10 μl of the mixture was transferred to each well of a 384-well assay plate yielding a final concentration for the membrane and SPA beads of 0.5 μg/well and 100 μg/well, respectively
To generate different concentrations of the test compound, compound stocks were prepared using 10 step ½ log dilutions with a high concentration of 10 mM in DMSO and the lowest concentration being DMSO only without compound. An intermediate 40× dilution was then prepared in the assay buffer. The compound was then transferred at 10 μl/well to the assay plate. 0.5 nM [^125 I]-labeled macrophage inflammatory protein-1α (MIP-1α, an endogenous CCR1 ligand) in the assay buffer was transferred to the assay plate at 5 μl/well, for a final ligand concentration of 0.1 nM. The assay plate was then centrifuged at 2500 rpm for 2 minutes and incubated for 4 hours at ambient temperature, at which time the raw data was recorded using microbeta. The IC50 was then calculated using Graphpad Prism.
In the case of `Cc1onc(-c2ccccc2)c1NC(=O)N1C[C@H](O)C[C@@H]1c1nnc(C)n1Cc1ccc(Cl)cc1` [Compound 392], the IC50 is 50 to 500 nM.
`CC(=O)O[C@@H]1C[C@H](c2nnc(C)n2Cc2ccc(Cl)cc2)N(C(=O)Nc2ccc(C(F)(F)F)nc2Cl)C1` [Compound 496]: the IC50 is 50 to 500 nM.
The result for `Cc1nc(Cl)ncc1NC(=O)N1CCC[C@@H]1c1nnc(C)n1Cc1ccc(Cl)cc1` [Compound 350] reads less than 50 nM.
Regarding `CCc1nnc([C@H]2CCCN2C(=O)N[C@H]2CCOc3cc(C(F)(F)F)ccc32)n1Cc1ccc(Cl)cc1` [Compound 209], the IC50 is less than 50 nM.
`Cc1cc(C(F)(F)F)cc(C)c1NC(=O)N1CCC[C@@H]1c1ncnn1Cc1ccc(Cl)cc1` [Compound 58]: the IC50 was less than 50 nM.
Regarding `Cc1nnc([C@H]2CCCN2C(=S)Nc2ccc(C(F)(F)F)cc2)n1Cc1ccc(Cl)cc1` [Compound 608], the IC50 was less than 50 nM.
Regarding `CNS(=O)(=O)c1ccc(NC(=O)N2CCC[C@@H]2c2nnc(C)n2Cc2ccc(Cl)cc2)c(Cl)c1` [Compound 452], the IC50 was less than 50 nM.
For `CCOC1CCC(NC(=O)N2CCC[C@@H]2c2nnc(C)n2Cc2ccc(Cl)cc2)CC1` (stereo partly drawn) [Compound 305], the IC50 is 500 to 5000 nM.
As for `Cc1nnc([C@H]2CCCN2C(=O)Nc2ccc(Cl)cc2F)n1[C@@H](C)c1ccc(Cl)cc1` [Compound 342], the IC50 is 500 to 5000 nM.
With `Cc1onc(NC(=O)N2CCC[C@@H]2c2nnc(C)n2Cc2ccc(Cl)cc2)c1F` [Compound 590], the IC50 lay in the range of 50 to 500 nM.
On to `Cc1cc(Cl)cc(C)c1NC(=O)N1CCC[C@@H]1c1nncn1Cc1ccc(Cl)cc1` [Compound 106], for which the IC50 is less than 50 nM.
To `Cc1nnc([C@H]2CCCN2C(=O)Nc2ccc(Cl)cc2F)n1Cc1ccc(Cl)cc1` [Compound 144] belongs less than 50 nM; to `Cc1nnc([C@H]2CCCN2C(=C[N+](=O)[O-])Nc2ccc(C(F)(F)F)cc2)n1Cc1ccc(Cl)cc1` [Compound 257], 500 to 5000 nM.
For the compound `Cc1ccc(C(=O)O)cc1NC(=O)N1CCC[C@@H]1c1nnc(C)n1Cc1ccc(Cl)cc1` [Compound 241], the IC50 lay in the range of 50 to 500 nM.
Take `Cc1ncc(NC(=O)N2CCC[C@@H]2c2nnc(C)n2Cc2ccc(Cl)cc2)c(C)n1` [Compound 415]: the IC50 was less than 50 nM.
The result for `O=C(N[C@H]1CCOc2c(F)cccc21)N1CCC[C@@H]1c1ncncc1Cc1ccc(Cl)cc1` [Compound 22] reads 50 to 500 nM; that for `Cc1cc(C)c(S(=O)(=O)N(C)C)cc1NC(=O)N1CCC[C@@H]1c1nnc(C)n1Cc1ccc(Cl)cc1` [Compound 483], less than 50 nM; that for `Cc1nnc([C@H]2CCCN2c2c(Nc3ccc(F)cc3F)c(=O)c2=O)n1Cc1ccc(Cl)cc1` [Compound 579], 500 to 5000 nM.
With `Cc1nnc([C@H]2CCCN2C(=O)Nc2c(F)cc(F)cc2F)n1Cc1ccc(Cl)cc1` [Compound 473], the IC50 was less than 50 nM.
As to `COCc1nnc([C@H]2CCCN2C(=O)N[C@@H](C)c2ccc(Cl)cc2)n1Cc1ccc(Cl)cc1` [Compound 463], the IC50 was 50 to 500 nM.
The result for `Cc1cnc([C@H]2CCCN2C(=O)Nc2ccc(Cl)cc2F)n1Cc1ccc(Cl)cc1` [Compound 567] reads 50 to 500 nM.
Regarding `Cc1cccc(C(=O)O)c1NC(=O)N1CCC[C@@H]1c1nnc(C)n1Cc1ccc(Cl)cc1` [Compound 251], the IC50 lay within 500 to 5000 nM.
With `Cc1nnc([C@H]2CCCN2C(=O)NC2(c3ccccc3)CC2)n1Cc1ccc(F)cc1` [Compound 399], the IC50 lay within 50 to 500 nM.
The result for `O=C(N[C@H]1CCc2ccccc2C1)N1CCC[C@@H]1c1ncnn1Cc1ccc(Cl)cc1` [Compound 56] reads less than 50 nM; that for `Cc1nnc([C@H]2C[C@@H](O)CN2C(=O)N[C@@H](C)c2ccc(Cl)cc2)n1Cc1ccc(Cl)cc1` [Compound 438], less than 50 nM.
For the compound `O=C(NCc1ccc(C(F)(F)F)cc1)N1CCC[C@@H]1c1ncncc1Cc1ccc(Cl)cc1` [Compound 25], the IC50 fell in the range of 50 to 500 nM.
`Cc1noc(-c2ccccc2)c1NC(=O)N1CCC[C@@H]1c1nnc(C)n1Cc1ccc(Cl)cc1` [Compound 123]: the concentration for half-maximal inhibition (IC50) is less than 50 nM.
As to `Cc1nnc([C@H]2C[C@H](O)CN2C(=O)Nc2ccc(C(F)(F)F)cc2)n1Cc1ccc(Cl)cc1` [Compound 388], the IC50 fell in the range of 50 to 500 nM.
For `Cc1nnc([C@H]2CCCN2C(=O)Nc2ccc(Br)cc2F)n1Cc1ccc(Cl)cc1` [Compound 418], the IC50 is less than 50 nM.
`O=C(N[C@H]1CCOc2cc(C(F)(F)F)ccc21)N1CCC[C@@H]1c1nnc(Cl)n1Cc1ccc(Cl)cc1` [Compound 194]: the IC50 is less than 50 nM.
For `CC(=O)N1CCC(NC(=O)N2CCC[C@@H]2c2nnc(C)n2Cc2ccc(Cl)cc2)c2ccccc21` (stereo partly drawn) [Compound 604], the IC50 was less than 50 nM.
Take `Cc1nnc([C@H]2C[C@@H](O)CN2C(=O)NC2(c3ccc(C(F)(F)F)cc3)CC2)n1Cc1ccc(Cl)cc1` [Compound 387]: the IC50 was less than 50 nM.
`Cc1cc(Cl)cc(C)c1NC(=O)N1CCC[C@@H]1c1nnc(C)n1Cc1ccc(Cl)cc1` [Compound 115]: the IC50 is less than 50 nM.
`Cc1nnc([C@H]2CCCN2C(=O)N[C@@H](C)C(C)C)n1Cc1ccc(Cl)cc1` [Compound 343]: the IC50 fell in the range of 50 to 500 nM.
Consider `O=C(NC(c1ccccc1)c1ccccc1)N1C[C@H](O)C[C@@H]1c1nncn1Cc1ccc(Cl)cc1` [Compound 476], for which the IC50 was 50 to 500 nM.
With `Cc1onc(-c2ccccc2)c1NC(=O)N1CCC[C@@H]1c1ncnn1Cc1ccc(Cl)cc1` [Compound 62], the IC50 is less than 50 nM.
For the compound `CC[C@H](Nc1c(N2CCC[C@@H]2c2nnc(C)n2Cc2ccc(Cl)cc2)c(=O)c1=O)c1ccc(C(F)(F)F)nc1` [Compound 562], the IC50 was in the range of 50 to 500 nM.
For the compound `Cn1ncc(-c2ccccc2)c1NC(=O)N1CCC[C@@H]1c1ncnn1Cc1ccc(Cl)cc1` [Compound 69], the IC50 was 50 to 500 nM.
Consider `CC(=O)O[C@@H]1C[C@H](c2nnc(C)n2Cc2ccc(Cl)cc2)N(C(=O)Nc2ccc(Cl)nc2Cl)C1` [Compound 500], for which the IC50 lay in the range of 50 to 500 nM.
To `O=C(NCc1ccc(C(F)(F)F)cc1)N1CCC[C@@H]1c1nnc(Cl)n1Cc1ccc(Cl)cc1` [Compound 205] belongs less than 50 nM; to `C[C@@H](NC(=O)N1CCC[C@@H]1c1nnc(CO)n1Cc1ccc(Cl)cc1)c1ccc(Cl)cc1` [Compound 401], 50 to 500 nM; to `Cc1nnc([C@H]2CCCN2C(=O)N[C@H]2CCc3cc(Cl)ccc32)n1Cc1ccc(Cl)cc1` [Compound 127], less than 50 nM.
Consider `Cc1nnc([C@H]2CCCN2C(=O)N[C@H]2CCOc3cc(C(F)(F)F)ccc32)n1[C@@H](C)c1ccc(Cl)cc1` [Compound 337], for which the IC50 was 50 to 500 nM.
As for `CN1C(=O)COc2ccc(NC(=O)N3CCC[C@@H]3c3oncc3Cc3ccc(Cl)cc3)cc21` [Compound 3], the IC50 fell in the range of 50 to 500 nM.
In the case of `Cc1nnc([C@H]2CCCN2/C(=C/[N+](=O)[O-])NCc2ccc(Cl)cc2Cl)n1Cc1ccc(Cl)cc1` [Compound 612], the IC50 was 50 to 500 nM.
The result for `Cc1noc(-c2ccccc2)c1NC(=O)N1CCC[C@@H]1c1nnnn1Cc1ccc(Cl)cc1` [Compound 51] reads less than 50 nM; that for `CC[C@H](NC(=O)N1CCC[C@@H]1c1nnc(C)n1Cc1ccc(Br)cc1)c1cc2ccccc2o1` [Compound 585], less than 50 nM; that for `COC(=O)c1ccc(C(F)(F)F)c(NC(=O)N2CCC[C@@H]2c2nnc(C)n2Cc2ccc(Cl)cc2)c1` [Compound 317], 50 to 500 nM.

In general, IC50 refers to the concentration at which inhibition is half-maximal.
